# From ChEMBL document CHEMBL6182935, “Discovery of a Novel Silybin Derivative for the Treatment of Metabolic Dysfunction-Associated Steatohepatitis” (J Med Chem, 2025)
# Active and inactive are the calls of the source. The rule behind the calls is not given here.
# How the values were obtained:
# Rattus norvegicus [1] = assay: Hepatoprotective activity in male Sprague-Dawley rat model of CCl4-induced ALI assessed as reduction in acute fat deposition at 100 mg/kg, IG qd pretreated with compound for 7 days followed by CCl4 administration after 2 hrs post-compound treatment measured after 16 hrs post-CCl4 injection by oil red O staining based analysis; type: functional, organism-based; conditions: time 186.0 hrs
# Mus musculus [2] = assay: Anti-MASH activity in HFD-fed CCl4-treated male C57BL/6 mouse assessed as reversal of hepatopancreas somatic indices at 150 mg/kg, po qd treated for 4 weeks; type: functional, organism-based
# LX-2 = assay: Anti-MASH activity in TGF-beta-activated-human LX2 cells assessed as reduction in fibronectin level incubated for 48 hrs by Western blot analysis; type: functional, cell-based; conditions: dose 10-40 µM
# L02 [3] = assay: Anti-MASH activity in CCl4-stimulated human LO2 cells assessed as increase in cell viability up to 10 uM incubated for 24 hrs by MTT assay; type: functional, cell-based
# Mus musculus [4] = assay: Anti-MASH activity in HFD-fed CCl4-treated male C57BL/6 mouse assessed as restoration of liver GSH level at 150 mg/kg, po qd treated for 4 weeks; type: functional, organism-based
# Mus musculus [5] = assay: Anti-MASH activity in HFD-fed CCl4-treated male C57BL/6 mouse assessed as reduction in inflammation in liver at 150 mg/kg, po qd treated for 4 weeks by H and E/Oil red O staining based analysis; type: functional, organism-based
# [6] = MRT (0 to infinity) in overnight-fasted male Sprague-Dawley rat at 150 mg/kg, po measured up to 12 hrs by HPLC analysis; type: ADME, organism-based; conditions: in vivo
# Rattus norvegicus [7] = assay: Hepatoprotective activity in male Sprague-Dawley rat model of CCl4-induced ALI assessed as reduction in […] somatic indices at 100 mg/kg, IG qd pretreated with compound for 7 days followed by CCl4 administration after 2 hrs post-compound treatment measured after 16 hrs post-CCl4 injection; type: functional, organism-based; conditions: time 186.0 hrs
# L02 [8] = assay: Anti-inflammatory activity in CCl4-stimulated human LO2 cells assessed as reduction in TNF-alpha mRNA level at 1 uM; type: functional, cell-based
# Hepatocyte [9] = assay: Anti-inflammatory activity in CCl4-stimulated mouse primary hepatocytes assessed as reduction in IL-6 mRNA level at 1 uM; type: functional, cell-based
# Hepatocyte [10] = assay: Anti-MASH activity in palmitate/oleate-stimulated mouse primary hepatocytes assessed as reduction in triglyceride level; type: functional, cell-based
# Rattus norvegicus [11] = assay: Hepatoprotective activity in male Sprague-Dawley rat model of CCl4-induced ALI assessed as reduction in white granular fat in liver at 100 mg/kg, IG qd pretreated with compound for 7 days followed by CCl4 administration after 2 hrs post-compound treatment measured after 16 hrs post-CCl4 injection; type: functional, organism-based; conditions: time 186.0 hrs
# Mus musculus [12] = assay: Anti-MASH activity in HFD-fed CCl4-treated male C57BL/6 mouse assessed as reversal of mottled texture of liver at 150 mg/kg, po qd treated for 4 weeks; type: functional, organism-based
# [13] = Antioxidant activity assessed as clearing rate incubated for 30 mins under dark condition by DPPH free radical scavenging assay; type: functional
# Mus musculus [14] = assay: Anti-MASH activity in HFD-fed CCl4-treated male C57BL/6 mouse assessed as reduction in fat accumulation in liver at 150 mg/kg, po qd treated for 4 weeks by Oil red O staining based analysis; type: functional, organism-based
# L02 [15] = assay: Anti-MASH activity in palmitate/oleate-stimulated human LO2 cells assessed as reduction in triglyceride level incubated for 24 hrs; type: functional, cell-based; conditions: dose 10-40 µM
# Mus musculus [16] = assay: Anti-MASH activity in HFD-fed CCl4-treated male C57BL/6 mouse assessed as reduction in steatosis in liver at 150 mg/kg, po qd treated for 4 weeks by H and E/Oil red O staining based analysis; type: functional, organism-based
# [17] = Toxicity in HFD-fed CCl4-treated male C57BL/6 mouse assessed as body weight loss at 150 mg/kg, po qd treated for 4 weeks; type: organism-based; conditions: in vivo, 672 h
# [18] = Tmax in overnight-fasted male Sprague-Dawley rat at 150 mg/kg, po measured up to 12 hrs by HPLC analysis; type: ADME, organism-based; conditions: in vivo
# Mus musculus [19] = assay: Anti-MASH activity in HFD-fed CCl4-treated male C57BL/6 mouse assessed as restoration of serum AST level at 150 mg/kg, po qd treated for 4 weeks; type: functional, organism-based
# [20] = Cmax in overnight-fasted male Sprague-Dawley rat at 150 mg/kg, po measured up to 12 hrs by HPLC analysis; type: ADME, organism-based; conditions: in vivo
# Mus musculus [21] = assay: Anti-MASH activity in HFD-fed CCl4-treated male C57BL/6 mouse assessed as reversal of volume of liver at 150 mg/kg, po qd treated for 4 weeks; type: functional, organism-based
# [22] = Solubility in […] incubated for 10 mins; type: physicochemical
# [23] = Oral bioavailability in overnight-fasted male Sprague-Dawley rat assessed as fold increase at 150 mg/kg measured up to 12 hrs by HPLC analysis relative to silybin; type: ADME, organism-based; conditions: in vivo
# Hepatocyte [24] = assay: Anti-MASH activity in palmitate/oleate-stimulated mouse primary hepatocytes assessed as reduction in lipid accumulation by Oil Red O staining assay; type: functional, cell-based
# [25] = Antioxidant activity assessed as clearing rate incubated for 5 mins in presence of pyrogallol by superoxide anion scavenging assay; type: functional
# [26] = Antioxidant activity assessed as inhibition of DPPH free radical scavenging activity incubated for 30 mins under dark condition; type: functional
# Mus musculus [27] = assay: Anti-MASH activity in HFD-fed CCl4-treated male C57BL/6 mouse assessed as reduction in hepatic cholesterol level at 150 mg/kg, po qd treated for 4 weeks by ELISA; type: functional, organism-based
# Rattus norvegicus [28] = assay: Hepatoprotective activity in male Sprague-Dawley rat model of CCl4-induced ALI assessed as restoration of serum LDH level at 100 mg/kg, IG qd pretreated with compound for 7 days followed by CCl4 administration after 2 hrs post-compound treatment measured after 16 hrs post-CCl4 injection; type: functional, organism-based; conditions: time 186.0 hrs
# [29] = Inhibition of lipid peroxidation in egg yolk (unknown origin) preheated with compound and FeSO4 for 15 mins followed by TCA/TBA addition measured after 15 mins by absorbance based assay; type: functional, tissue-based
# Rattus norvegicus [30] = assay: Hepatoprotective activity in male Sprague-Dawley rat model of CCl4-induced ALI assessed as restoration of serum ALT level at 100 mg/kg, IG qd pretreated with compound for 7 days followed by CCl4 administration after 2 hrs post-compound treatment measured after 16 hrs post-CCl4 injection; type: functional, organism-based; conditions: time 186.0 hrs
# L02 [31] = assay: Anti-MASH activity in CCl4-stimulated human LO2 cells assessed as reduction in ROS level incubated for 24 hrs by DCFH-DA staining assay; type: functional, cell-based; conditions: dose 2.5-10 µM
# Mus musculus [32] = assay: Anti-MASH activity in HFD-fed CCl4-treated male C57BL/6 mouse assessed as restoration of liver GSH-Px level at 150 mg/kg, po qd treated for 4 weeks; type: functional, organism-based
# Rattus norvegicus [33] = assay: Hepatoprotective activity in male Sprague-Dawley rat model of CCl4-induced ALI assessed as reduction in MDA level at 100 mg/kg, IG qd pretreated with compound for 7 days followed by CCl4 administration after 2 hrs post-compound treatment measured after 16 hrs post-CCl4 injection; type: functional, organism-based; conditions: time 186.0 hrs
# Mus musculus [34] = assay: Anti-MASH activity in HFD-fed CCl4-treated male C57BL/6 mouse assessed as reduction in serum cholesterol level at 150 mg/kg, po qd treated for 4 weeks; type: functional, organism-based
structure (smiles),measurement,setting,value
COc1cc([C@@H]2Oc3cc([C@H]4Oc5cc(O)cc(O)c5C(=O)[C@@H]4O)ccc3OC2CS)ccc1O (stereo not given in full),Activity,Rattus norvegicus [1],Active
same,Activity,Mus musculus [2],Active
same,Activity,LX-2,Dose-dependent-effect
same,Activity,L02 [3],Active
same,Activity,Mus musculus [4],Active; Compound Was More Significant Than Silybin
same,Activity,Mus musculus [5],Active; Activity Was Better Than Silybin
same,MRT inf,[6],3.51 h
same,Activity,Rattus norvegicus [7],Active
same,Activity,L02 [8],Active
same,Activity,Hepatocyte [9],Active
same,Activity,Hepatocyte [10],Active
same,Activity,Rattus norvegicus [11],Active
same,Activity,Mus musculus [12],Active; Activity Better Than Silybin
same,Activity,[13],92.9%
same,Activity,Mus musculus [14],Active
same,Activity,L02 [15],Dose-dependent-effect
same,Activity,Mus musculus [16],Active; Activity Was Better Than Silybin
same,Activity,[17],Non-toxic
same,Tmax,[18],1.99 h
same,Activity,Mus musculus [19],Active; Activity Was Better Than Silybin
same,Cmax,[20],4080 ng/mL
same,Activity,Mus musculus [21],Active; Activity Better Than Silybin
same,solubility,[22],> 1000 mg/mL
same,fold change (FC),[23],> 20
same,Activity,Hepatocyte [24],Active
same,Activity,[25],82.9%
same,IC50,[26],33.4 µM
same,Activity,Mus musculus [27],Active; Activity Was More Significant Than Silybin
same,Activity,Rattus norvegicus [28],Active
same,IC50,[29],41.7 µM
same,Activity,Rattus norvegicus [30],Active
same,Activity,L02 [31],Active
same,Activity,Mus musculus [32],Active
same,Activity,Rattus norvegicus [33],Active; Exhibited Better Efficacy Than Silybin
same,Activity,Mus musculus [34],Active
